#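 GI50: concentration for 50% inhibition of growth. The concentration for full growth arrest is given as TGI.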
# Key:
# Assay in all cases: DTP human tumour cell line panel, 384-well format
# [1] = tested on: NCI-H23 lung
# [2] = tested on: HT29 colon
# [3] = tested on: SNB-19 CNS
# [4] = tested on: NCI-H522 lung
# [5] = tested on: A549 NSCLC
# [6] = tested on: MALME-3M melanoma
# [7] = tested on: RPMI-8226 leukemia
# [8] = tested on: LOX IMVI melanoma
# [9] = tested on: SK-MEL-28 melanoma
# [10] = tested on: EKVX NSCLC
# [11] = tested on: COLO 205 colon
# [12] = tested on: HCC-2998 colon
# [13] = tested on: MOLT-4 leukemia
# [14] = tested on: OVCAR-4 ovarian
# [15] = tested on: SK-OV-3 ovarian
# [16] = tested on: CAKI-1 renal
# [17] = tested on: NCI/ADR-RES ovarian
# [18] = tested on: K-562 leukemia
# [19] = tested on: SK-MEL-5 melanoma
# [20] = tested on: ACHN renal
# [21] = tested on: SW-620 colon
# [22] = tested on: MDA-MB-435 melanoma
# [23] = tested on: SR leukemia
# [24] = tested on: DU-145 prostate
# [25] = tested on: CCRF-CEM leukemia
# [26] = tested on: SF-268 CNS
# [27] = tested on: HL-60(TB) leukemia
# [28] = tested on: NCI-H226 lung
# [29] = tested on: SF-295 CNS
# [30] = tested on: SF-539 CNS
# [31] = tested on: RXF 393 renal
# [32] = tested on: NCI-H460 NSCLC
# [33] = tested on: UO-31 renal
# [34] = tested on: PC-3 prostate
# [35] = tested on: OVCAR-5 ovarian
# [36] = tested on: UACC-62 melanoma
# [37] = tested on: HOP-92 NSCLC
# [38] = tested on: T-47D breast
# [39] = tested on: OVCAR-8 ovarian
# [40] = tested on: IGROV1 ovarian
# [41] = tested on: MCF7 breast
# [42] = tested on: NCI-H322M lung
# [43] = tested on: OVCAR-3 ovarian
# [44] = tested on: UACC-257 melanoma
# [45] = tested on: A498 renal
# [46] = tested on: 786-0 renal
# [47] = tested on: HOP-62 NSCLC
# [48] = tested on: HCT-15 colon
# [49] = tested on: MDA-MB-231 breast
# [50] = tested on: BT-549 breast
# [51] = tested on: TK-10 renal
# [52] = tested on: SNB-75 CNS
# [53] = tested on: M14 melanoma
# [54] = tested on: KM12 colon
# [55] = tested on: SN12C renal
# [56] = tested on: HS 578T breast
smiles,measurement,setting,value
CCN1Cc2c(ccc(F)c2C#N)O[C@@H](C)CNC(=O)c2c(N)nn3ccc1nc23,GI50,[1],264 nM
same,TGI,[1],3480 nM
same,GI50,[2],694 nM
same,TGI,[2],12400 nM
same,GI50,[3],2840 nM
same,TGI,[3],12700 nM
same,GI50,[4],528 nM
same,TGI,[4],14300 nM
same,GI50,[5],585 nM
same,TGI,[5],12100 nM
same,GI50,[6],436 nM
same,TGI,[6],2410 nM
same,GI50,[7],205 nM
same,TGI,[7],598 nM
same,GI50,[8],529 nM
same,TGI,[8],1980 nM
same,GI50,[9],620 nM
same,TGI,[9],3760 nM
same,GI50,[10],563 nM
same,TGI,[10],10300 nM
same,GI50,[11],271 nM
same,TGI,[11],1010 nM
same,GI50,[12],4120 nM
same,TGI,[12],20900 nM
same,GI50,[13],198 nM
same,TGI,[13],478 nM
same,GI50,[14],2400 nM
same,TGI,[14],17300 nM
same,GI50,[15],282 nM
same,TGI,[15],2360 nM
same,GI50,[16],523 nM
same,TGI,[16],1840 nM
same,GI50,[17],3890 nM
same,TGI,[17],15800 nM
same,GI50,[18],66.4 nM
same,TGI,[18],222 nM
same,GI50,[19],395 nM
same,TGI,[19],5310 nM
same,GI50,[20],385 nM
same,TGI,[20],2060 nM
same,GI50,[21],3820 nM
same,TGI,[21],16400 nM
same,GI50,[22],565 nM
same,TGI,[22],10500 nM
same,GI50,[23],310 nM
same,TGI,[23],1020 nM
same,GI50,[24],465 nM
same,TGI,[24],2880 nM
same,GI50,[25],566 nM
same,TGI,[25],10800 nM
same,GI50,[26],1760 nM
same,TGI,[26],11900 nM
same,GI50,[27],1140 nM
same,TGI,[27],3010 nM
same,GI50,[28],1280 nM
same,TGI,[28],4700 nM
same,GI50,[29],153 nM
same,TGI,[29],3020 nM
same,GI50,[30],3070 nM
same,TGI,[30],13800 nM
same,GI50,[31],1320 nM
same,TGI,[31],7180 nM
same,GI50,[32],426 nM
same,TGI,[32],11400 nM
same,GI50,[33],2650 nM
same,TGI,[33],16300 nM
same,GI50,[34],1380 nM
same,TGI,[34],17600 nM
same,GI50,[35],735 nM
same,TGI,[35],9020 nM
same,GI50,[36],454 nM
same,TGI,[36],2520 nM
same,GI50,[37],362 nM
same,TGI,[37],1850 nM
same,GI50,[38],946 nM
same,TGI,[38],12300 nM
same,GI50,[39],2740 nM
same,TGI,[39],13800 nM
same,GI50,[40],566 nM
same,TGI,[40],3350 nM
same,GI50,[41],3160 nM
same,TGI,[41],19400 nM
same,GI50,[42],2200 nM
same,TGI,[42],18800 nM
same,GI50,[43],1420 nM
same,TGI,[43],11200 nM
same,GI50,[44],1020 nM
same,TGI,[44],4890 nM
same,GI50,[45],379 nM
same,TGI,[45],7560 nM
same,GI50,[46],1340 nM
same,TGI,[46],12900 nM
same,GI50,[47],1210 nM
same,TGI,[47],11200 nM
same,GI50,[48],757 nM
same,TGI,[48],10300 nM
same,GI50,[49],438 nM
same,TGI,[49],1970 nM
same,GI50,[50],2680 nM
same,TGI,[50],15300 nM
same,GI50,[51],868 nM
same,TGI,[51],6620 nM
same,GI50,[52],892 nM
same,TGI,[52],5370 nM
same,GI50,[53],364 nM
same,TGI,[53],1850 nM
same,TGI,[54],14700 nM
same,GI50,[55],613 nM
same,TGI,[55],4690 nM
same,GI50,[56],381 nM
same,TGI,[56],1950 nM

# Reference: PubChem BioAssay (NCI)
